Earlier results in patent publication EP0313535B1 (Bristol-Myers Squibb Company, priority 1987, dated 1989).
Blank lines part the entries; values can stand above or below the compound they belong to.

Tests used:
[1] = metabolite of buspirone

SMILES: O=C1CC2(CCCC2)CC(=O)N1CCCCN1CCN(c2ncc(O)cn2)CC1 [5-OH-buspirone]
pharmacological activity [1]: no pharmacological activity

SMILES: c1cnc(N2CCNCC2)nc1 [Example 1-PP, 1-(2-pyrimidinyl)-piperazine]
activity relative to buspirone per se [1]: 20-25%

biological half life (in man (Mayol et al. 1985)): 2-11 hours
variation of the maximum plasma concentration (interindividual (Gammans et al. 1986)): up to 10 fold
SMILES: O=C1CC2(CCCC2)CC(=O)N1CCCCN1CCN(c2ncccn2)CC1 [buspirone, Buspirone]
